Results published in ChEMBL document CHEMBL4138216, “Design, synthesis and structure-activity relationship of a focused library of β-phenylalanine derivatives as novel eEF2K inhibitors with apoptosis-inducing mechanisms in breast cancer” (Eur J Med Chem, 2018).

Key:
[1] = molecular target: T1, Eukaryotic elongation factor 2 kinase (Homo sapiens, UniProt O00418); assay: Inhibition of eEF2K (unknown origin) using peptide MH-1 as substrate after 2 hrs by ADP-Glo luminescent assay
T1 sequence (O00418 whole entry): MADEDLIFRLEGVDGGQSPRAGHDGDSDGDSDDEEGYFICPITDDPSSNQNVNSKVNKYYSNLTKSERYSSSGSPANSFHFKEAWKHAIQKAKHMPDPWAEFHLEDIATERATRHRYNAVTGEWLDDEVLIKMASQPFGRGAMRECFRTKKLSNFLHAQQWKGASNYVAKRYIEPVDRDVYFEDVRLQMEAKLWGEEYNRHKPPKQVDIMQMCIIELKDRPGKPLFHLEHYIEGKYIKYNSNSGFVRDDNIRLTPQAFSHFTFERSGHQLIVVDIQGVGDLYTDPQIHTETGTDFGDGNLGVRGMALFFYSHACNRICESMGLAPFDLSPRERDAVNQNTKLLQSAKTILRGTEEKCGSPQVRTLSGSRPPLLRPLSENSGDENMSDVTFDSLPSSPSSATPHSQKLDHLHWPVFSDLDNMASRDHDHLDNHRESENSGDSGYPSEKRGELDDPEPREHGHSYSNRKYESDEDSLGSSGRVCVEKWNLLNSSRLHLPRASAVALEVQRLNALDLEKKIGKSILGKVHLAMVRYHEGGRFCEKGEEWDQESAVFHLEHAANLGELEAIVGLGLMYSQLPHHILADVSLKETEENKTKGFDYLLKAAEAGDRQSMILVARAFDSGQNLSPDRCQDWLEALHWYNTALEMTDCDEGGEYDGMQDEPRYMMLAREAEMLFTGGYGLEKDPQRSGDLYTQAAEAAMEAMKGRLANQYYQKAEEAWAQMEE

MDA-MB-436 = assay: Antiproliferative activity against human MDA-MB-436 cells assessed as decrease in cell viability after 24 hrs by MTT assay; format: functional, cell-based; details: MDA-MB-436, 24 h
MDA-MB-231 = assay: cells; details: Homo sapiens, MDA-MB-231, 24 h
Description: Antiproliferative activity against human MDA-MB-231 cells assessed as decrease in cell viability after 24 hrs by MTT assay

[2] = molecular target: T2, Eukaryotic elongation factor 2 kinase (Rattus norvegicus, UniProt P70531); assay: Inhibition of recombinant rat GST-tagged eEF2K expressed in Escherichia coli BL21 (DE3) cells using yeast eEF2 as substrate preincubated for 30 mins followed by ATP/[gamma-32P]-ATP addition measured after 10 mins
T2 sequence (P70531 whole entry): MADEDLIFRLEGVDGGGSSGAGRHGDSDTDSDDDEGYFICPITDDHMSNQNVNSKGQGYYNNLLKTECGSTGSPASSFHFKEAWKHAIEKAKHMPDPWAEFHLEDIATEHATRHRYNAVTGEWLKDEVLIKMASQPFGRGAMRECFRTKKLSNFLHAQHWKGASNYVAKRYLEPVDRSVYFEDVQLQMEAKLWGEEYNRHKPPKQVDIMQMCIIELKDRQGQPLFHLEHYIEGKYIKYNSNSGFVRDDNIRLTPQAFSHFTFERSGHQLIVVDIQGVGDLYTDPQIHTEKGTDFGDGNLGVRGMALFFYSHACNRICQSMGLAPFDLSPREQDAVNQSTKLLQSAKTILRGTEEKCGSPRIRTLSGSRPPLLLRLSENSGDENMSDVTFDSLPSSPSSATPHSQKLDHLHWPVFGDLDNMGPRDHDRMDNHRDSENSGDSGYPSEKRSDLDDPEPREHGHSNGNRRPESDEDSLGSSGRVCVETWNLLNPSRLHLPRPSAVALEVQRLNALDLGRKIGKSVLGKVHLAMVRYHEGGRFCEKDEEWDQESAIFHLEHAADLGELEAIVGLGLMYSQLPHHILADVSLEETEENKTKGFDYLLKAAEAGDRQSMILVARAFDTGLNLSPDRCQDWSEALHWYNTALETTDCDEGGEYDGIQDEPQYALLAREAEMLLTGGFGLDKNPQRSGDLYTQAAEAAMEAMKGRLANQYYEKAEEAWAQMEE

[3] = molecular target: T1, Eukaryotic elongation factor 2 kinase; assay: Inhibition of N-terminal GST-tagged recombinant human eEF2K expressed in Escherichia coli using biotinylated myelin basic protein as substrate after 45 mins in presence of [gamma-33P]-ATP by scintillation counting method

| Compound | IC50 [1] [µM] | IC50 (MDA-MB-436) [µM] | IC50 (MDA-MB-231) [µM] | IC50 [2] [µM] | IC50 [3] [µM] |
| --- | --- | --- | --- | --- | --- |
| O=C(O)CC(NS(=O)(=O)c1cccc([N+](=O)[O-])c1)c1ccccc1 (centres undefined) | > 50 | > 100 | > 100 |  |  |
| COc1ccc(C(=O)NC(CC(=O)O)c2ccc(C(C)(C)C)cc2)cc1 (centres undefined) | 47.9 | > 100 | > 100 |  |  |
| O=C(O)CC(NC(=O)c1cccc(Br)c1)c1ccccc1F (centres undefined) | > 50 | > 100 | > 100 |  |  |
| O=C(O)CC(NC(=O)c1cccc(Br)c1)c1ccccc1 (centres undefined) | > 50 | > 100 | > 100 |  |  |
| O=C(O)CC(NC(=O)c1c(Cl)cccc1Cl)c1ccc(Cl)cc1Cl (centres undefined) | > 50 | > 100 | > 100 |  |  |
| O=C(O)CC(NS(=O)(=O)c1ccccc1Br)c1ccccc1 (centres undefined) | > 50 | > 100 | > 100 |  |  |
| O=C(O)CC(NS(=O)(=O)c1cccc([N+](=O)[O-])c1)c1ccc(Cl)cc1Cl (centres undefined) | 44.5 | > 100 | 77.8 |  |  |
| CC(C)(C)c1ccc(C(CC(=O)O)NS(=O)(=O)c2ccccc2)cc1 (centres undefined) | > 50 | > 100 | > 100 |  |  |
| O=C(O)CC(NS(=O)(=O)c1ccc(C(F)(F)F)cc1)c1ccccc1F (centres undefined) | 11.6 | 55.6 | 47.1 |  |  |
| O=C(O)CC(NC(=O)c1ccc(F)cc1)c1ccccc1F (centres undefined) | 36.7 | > 100 | 72.3 |  |  |
| CC(C)(C)c1ccc(C(CC(=O)O)NS(=O)(=O)c2ccc(C(F)(F)F)cc2)cc1 (centres undefined) | 18.4 | 60.1 | 53.7 |  |  |
| N#Cc1ccc(S(=O)(=O)NC(CC(=O)O)c2ccccc2F)cc1 (centres undefined) | 27.5 | 77.7 | 69.7 |  |  |
| O=C(O)CC(NS(=O)(=O)c1cc(F)cc(F)c1)c1ccccc1 (centres undefined) | 37.8 | 69.4 | 79.3 |  |  |
| CC(C)(C)c1ccc(C(CC(=O)O)NC(=O)c2c(Cl)cccc2Cl)cc1 (centres undefined) | > 50 | > 100 | > 100 |  |  |
| O=C(O)CC(NC(=O)c1c(Cl)cccc1Cl)c1ccccc1 (centres undefined) | > 50 | > 100 | > 100 |  |  |
| COc1ccc(C(=O)NC(CC(=O)O)c2ccc(Cl)cc2Cl)cc1 (centres undefined) | 44.4 | > 100 | > 100 |  |  |
| COc1ccccc1C(=O)NC(CC(=O)O)c1ccccc1 (centres undefined) | > 50 | > 100 | > 100 |  |  |
| O=C(O)CC(NS(=O)(=O)c1ccccc1Br)c1ccc(Cl)cc1Cl (centres undefined) | > 50 | > 100 | > 100 |  |  |
| O=C(O)CC(NS(=O)(=O)c1ccccc1)c1ccccc1 (centres undefined) | > 50 | > 100 | > 100 |  |  |
| CC(C)(C)c1ccc(C(CC(=O)O)NS(=O)(=O)c2ccc(OC(F)(F)F)cc2)cc1 (centres undefined) | > 50 | > 100 | > 100 |  |  |
| CCC1(O)CC(C(C)C)[Se]C(c2ccc(C)cc2)=N1 (centres undefined) |  |  |  | 0.36 |  |
| CC(C)(C)c1ccc(C(CC(=O)O)NC(=O)c2ccc(Cl)cc2Cl)cc1 (centres undefined) | 23.8 | > 100 | 67.8 |  |  |
| CC(C)(C)c1ccc(S(=O)(=O)NC(CC(=O)O)c2ccccc2)cc1 (centres undefined) | > 50 | > 100 | > 100 |  |  |
| COc1ccccc1S(=O)(=O)NC(CC(=O)O)c1ccc(C(C)(C)C)cc1 (centres undefined) | > 50 | > 100 | > 100 |  |  |

| Compound | IC50 [1] [µM] | IC50 (MDA-MB-436) [µM] | IC50 (MDA-MB-231) [µM] | IC50 [2] [µM] | IC50 [3] [µM] |
| --- | --- | --- | --- | --- | --- |
| O=C(O)CC(NC(=O)c1ccc(F)cc1)c1ccc(Cl)cc1Cl (centres undefined) | 17.1 | 55.8 | 58.3 |  |  |
| O=C(O)CC(NS(=O)(=O)c1ccc(OC(F)(F)F)cc1)c1ccccc1 (centres undefined) | > 50 | > 100 | > 100 |  |  |
| O=C(O)CC(NS(=O)(=O)c1ccc(C(F)(F)F)cc1)c1ccccc1 (centres undefined) | 19.6 | 54.7 | 56.1 |  |  |
| O=C(O)CC(NC(=O)c1ccc(Cl)cc1Cl)c1ccccc1 (centres undefined) | 29.3 | 78.2 | 67.2 |  |  |
| CCCCCCCCCCCCCCCC[N+]1=C(C)N(Cc2ccccc2)CC1 |  |  |  |  | 0.06 |
| O=C(O)CC(NC(=O)c1ccc(C(F)(F)F)cc1)c1ccc(Cl)cc1Cl (centres undefined) | 11.7 | 44.1 | 39.1 |  |  |
| COc1ccccc1C(=O)NC(CC(=O)O)c1ccc(Cl)cc1Cl (centres undefined) | > 50 | > 100 | > 100 |  |  |
| O=C(O)CC(NS(=O)(=O)c1cc(F)cc(F)c1)c1ccccc1F (centres undefined) | 19.4 | 89.3 | 73.5 |  |  |
| O=C(O)CC(NC(=O)c1ccc(F)cc1)c1ccccc1 (centres undefined) | 35.1 | > 100 | 84.3 |  |  |
| O=C(O)CC(NS(=O)(=O)c1ccc(C(F)(F)F)cc1)c1ccc(Cl)cc1Cl (centres undefined) | 9.5 | 37.6 | 30.4 |  |  |
| COc1ccccc1C(=O)NC(CC(=O)O)c1ccc(C(C)(C)C)cc1 (centres undefined) | > 50 | > 100 | > 100 |  |  |
| O=C(O)CC(NC(=O)c1cccc(Br)c1)c1ccc(Cl)cc1Cl (centres undefined) | 28.4 | > 100 | 82.5 |  |  |
| O=C(O)CC(NS(=O)(=O)c1cc(F)cc(F)c1)c1ccc(Cl)cc1Cl (centres undefined) | 12.5 | 49.6 | 35.7 |  |  |
| O=C(O)CC(NS(=O)(=O)c1ccccc1)c1ccc(Cl)cc1Cl (centres undefined) | 33.4 | 59 | 57.8 |  |  |
| O=C(O)CC(NS(=O)(=O)c1ccccc1)c1ccccc1F (centres undefined) | > 50 | > 100 | > 100 |  |  |
| O=C(O)CC(NS(=O)(=O)c1ccc(F)cc1)c1ccccc1 (centres undefined) | 31.2 | > 100 | 88.4 |  |  |
| O=C(O)CC(NC(=O)c1ccc(C(F)(F)F)cc1)c1ccccc1F (centres undefined) | 44.5 | 66.8 | 59.2 |  |  |
| CC(C)(C)c1ccc(C(CC(=O)O)NC(=O)c2ccc(C(F)(F)F)cc2)cc1 (centres undefined) | 22.6 | 82.3 | 78.8 |  |  |
| O=C(O)CC(NC(=O)c1ccc(Cl)cc1Cl)c1ccc(Cl)cc1Cl (centres undefined) | 19.9 | 57.3 | 49.2 |  |  |
| O=C(O)CC(NC(=O)c1ccc(Cl)cc1Cl)c1ccccc1F (centres undefined) | 33.7 | > 100 | 89.3 |  |  |
| N#Cc1ccc(S(=O)(=O)NC(CC(=O)O)c2ccccc2)cc1 (centres undefined) | 18.7 | 59.3 | 48.7 |  |  |
| CC(C)(C)c1ccc(C(CC(=O)O)NC(=O)c2ccc(F)cc2)cc1 (centres undefined) | 31.6 | > 100 | 87.6 |  |  |
| CC(C)(C)c1ccc(C(CC(=O)O)NS(=O)(=O)c2ccc(F)cc2)cc1 (centres undefined) | 38.5 | 68.9 | 66.2 |  |  |
| CNC(=O)c1cc(Oc2ccc(NC(=O)Nc3ccc(Cl)c(C(F)(F)F)c3)cc2)ccn1 [SORAFENIB] |  | 4.2 | 2.8 |  |  |
